Measurements from patent US9801832B2, “Pharmaceutical composition having synergistic action of direct catalase inhibitors and modulators of no metabolism or of extracellular superoxide anion production which lead to catalase destruction” (Universitaetsklinikum Freiburg, priority 2012, dated 2017).

What was measured:
tumor cells [1] = conditions: cited from earlier work
thrombocytes = conditions: cited from earlier work
[2] = system: MKN-45 gastric carcinoma cells; assay: Induction of apoptosis in MKN-45 gastric carcinoma cells (percentages of apoptotic cells); format: cell-based, human
Description: 12 500 MKN-45 cells in 100 μl (duplicate batches) were treated with the given concentrations of salicylic acid or remained free from salicylic acid. After 10 minutes the given concentrations of cyanidine were added.
12 500 MKN-45 cells in 100 μl (duplicate batches) were treated with 0.1 μg/ml salicylic acid or remained free from salicylic acid (control). […] After 6.5 hours the percentages of apoptotic cells were determined in duplicate batches.
12 500 MKN-45 cells in 100 μl (duplicate batches) either received no additive (control), 2 mM of the singlet oxygen scavenger histidine or 25 μM Caspase-8 inhibitor. […] After another 15 minutes cyanidine was added in the given concentrations. After 6.5 hours of incubation at 37° C. the percentages of apoptotic cells were determined.
12 500 MKN-45 cells in 100 μl (duplicate batches) either received no additive (control), 2 mM of the singlet oxygen scavenger histidine or 25 μM Caspase-8 inhibitor. […] After 6.5 hours incubation at 37° C. the percentage of apoptotic cells was determined. […]
12 500 MKN-45 cells in 100 μl medium were incubated with increasing concentrations of the given active ingredients, in the presence or absence of 0.1 μg/ml salicylic acid for 6 hours and then, the percentages of the apoptotic cells were determined (repeated determination).

tumor cells [3] = conditions: cited from earlier work; remark: listed apart in the source
tumor cell catalase = target: T1, tumor cell catalase (Homo sapiens, UniProt P04040); assay: Catalase inhibition/inactivation in MKN-45 cells by challenge with exogenous peroxynitrite, NO donor or glucose oxidase; format: cell-based; parameters: endogenous in cells; host or cells: MKN-45 gastric carcinoma cells; conditions: 6.25 ng/ml salicylic acid; 200 μM peroxynitrite; MKN-45; 1.5 hours (FIG. 21)
T1 sequence (P04040 2-527 limits assumed): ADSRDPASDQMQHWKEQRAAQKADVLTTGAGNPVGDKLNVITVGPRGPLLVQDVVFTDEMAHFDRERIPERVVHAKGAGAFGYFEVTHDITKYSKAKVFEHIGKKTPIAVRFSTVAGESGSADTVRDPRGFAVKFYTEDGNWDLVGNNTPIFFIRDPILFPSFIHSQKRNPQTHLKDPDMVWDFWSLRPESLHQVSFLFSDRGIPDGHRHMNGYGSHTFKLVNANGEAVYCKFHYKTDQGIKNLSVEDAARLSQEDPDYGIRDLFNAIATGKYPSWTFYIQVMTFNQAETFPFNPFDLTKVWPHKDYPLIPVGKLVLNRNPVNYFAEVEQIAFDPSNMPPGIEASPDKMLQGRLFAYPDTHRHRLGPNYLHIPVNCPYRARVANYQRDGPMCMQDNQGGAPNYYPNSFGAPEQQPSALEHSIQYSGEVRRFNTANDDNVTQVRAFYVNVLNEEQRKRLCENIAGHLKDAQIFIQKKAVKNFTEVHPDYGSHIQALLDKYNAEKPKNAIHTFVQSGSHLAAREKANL
Description: Direct catalase inhibition with relevance to the induction of apoptosis in tumor cells can be determined by pre-incubating tumor cells at first in the presence of the singlet oxygen scavenger histidine (2 mM) with the substance to be tested in increasing concentration (between 10 and 30 minutes at 37° C.) and subsequently adding peroxynitrite in the concentration range between 10 and 200 μM. The tumor cells are protected from the apoptosis-triggering effect of peroxynitrite by their membranous catalase. An inhibition of the catalase partially or completely cancels this protection and in the presence of peroxynitrite leads to the induction of apoptosis. The presence of 2 mM histidine ensures that the measured induction of apoptosis is not a singlet oxygen-mediated inactivation of the catalase by destruction of its active center. Alternatively, instead of addition of histidine inhibition of the NADPH oxidase by 100 μM AEBSF may take place. With prevented superoxide anion production also no singlet oxygen formation in the test system is possible.
4000 MKN-45 cells per 100 μl in […] were treated with increasing concentrations of monoclonal antibodies against catalase “Anti-KAT” or Anti-EGFR. After 15 minutes either 200 μM peroxynitrite (“PON”), 0.5 mM DEA-NONOate (rapidly decomposing NO donor), or 2 mU/ml glucose oxidase (GOX) that continuously generates hydrogen peroxide were added. After another two hours at 37° C. the percentages of apoptotic cells were determined in duplicate batches.
The principle of identification is based on the fact that tumor cells (here MKN-45 gastric carcinoma cells) are protected from the apoptosis-triggering effect of exogenously added peroxynitrite by their membranous catalase. Addition of catalase inhibitors sensitizes the cells to the effect of exogenous peroxynitrite.
The experiment was performed in analogy to that described in FIG. 9 except that instead of Anti-KAT a monoclonal antibody against SOD was used. The cells were tested in two different densities, namely 4000 and 12 500 cells per 100 μl. The challenge to test the activity of catalase was carried out with 200 μM peroxynitrite, or 0.5 mM DEA NONOate or 2 mU/ml GOX.
Subsequently, 200 μM or no peroxynitrite was added. After 1.5 hours the percentages of apoptotic cells were determined in duplicate batches.
Subsequently, 200 μM or no peroxynitrite was added. After 1 hour the percentages of apoptotic cells were determined in duplicate batches.
12 500 MKN-45 cells in 100 μl medium received 100 μM AEBSF or no additive. After 15 minutes the given concentrations of cyanidine were added and the batches were incubated for 15 minutes at 37° C. Subsequently, 200 μM peroxynitrite (PON) were added or the batches were not treated with peroxynitrite (control). After 1 hour the percentages of apoptotic cells were determined in duplicate batches.
12 500 MKN-45 cells received no addition (control), or 2 mM histidine, or 100 μM AEBSF or 2.4 mM L-NAME immediately before the addition of the given concentrations of salicylic acid (“0 min”) or 20 minutes after addition of salicyl. 20 minutes after the addition of salicylic acid 200 μM peroxynitrite (PON) were added to all batches except the control batches. After another 2 hours the percentages of apoptotic cells were determined in duplicates.

Gumbus lymphoma cells = assay: Induction of apoptosis in Gumbus lymphoma cells (percentages of apoptotic cells); format: cell-based, human; conditions: Gumbus cells
Description: 12 500 MKN-45 gastric carcinoma cells (A) or 25 000 Gumbus lymphoma cells (B) in 100 μl complete medium each either remained untreated (control) or received 2 mM histidine (singlet oxygen scavenger), 50 mM taurine (HOCl scavenger), or 2.4 mM L-NAME (NOS inhibitor). In Experiment A, additionally 10 mM mannitol (hydroxyl radical scavenger), 150 μM ABH (peroxidase inhibitor), 100 U/ml MnSOD (superoxide anion scavenger) and 25 μM FeTPPS (peroxynitrite decomposer) were used. Subsequently, the given concentrations of salicylic acid were added. After 5 hours (A) and 4 hours, respectively, of incubation at 37° C. the percentages of apoptotic cells were determined in duplicate batches according to the classical apoptosis features nuclear condensation, nuclear fragmentation, and membrane blebbing. Here, at least 200 cells were evaluated pre batch. […] Inhibitors: singlet oxygen scavenger histidine 2 mM; HOCl scavenger taurine 50 mM, NOS inhibitor L-NAME 2.4 mM, peroxidase inhibitor ABH 150 μM.

Nc1nc[nH]n1 [3-aminotriazole]
sensitivity of tumor cells for ROS signaling-mediated apoptosis (autocrine and by interaction with non-transformed cells) (tumor cells [1]): become sensitive for these two processes

Oc1ccc(C=Cc2cc(O)cc(O)c2)cc1 [resveratrol]
minor increase of the superoxide anion production (thrombocytes; 6.25 and 12.5 μg/ml): statistically insignificant
production of superoxide anions, hydrogen peroxide, and singlet oxygen (thrombocytes): leads to a reduction of the production of superoxide anions, hydrogen peroxide, and singlet oxygen
synergistic interaction with salicylic acid in the induction of apoptosis ([2]; 0.1 μg/ml salicylic acid, MKN-45, 6 hours (FIGS. 22-25)): synergistically reacts
induction of apoptosis ([2]; substance alone, 12 500 MKN-45 cells in 100 μl, 4-6.5 hours at 37° C.): still does not lead to a significant induction of apoptosis
superoxide anion production (tumor cells [3]): leads to a dramatic increase of the superoxide anion production

CC(=O)O[C@H]1C(=O)[C@@]2(C)[C@H]([C@H](OC(=O)c3ccccc3)[C@]3(O)C[C@H](OC(=O)[C@H](O)[C@@H](NC(=O)c4ccccc4)c4ccccc4)C(C)=C1C3(C)C)[C@]1(OC(C)=O)CO[C@@H]1C[C@@H]2O [taxol]
concentration up to which a necessary involvement of Caspase-8 can be seen ([2]; alone, 25 μM Caspase-8 inhibitor, MKN-45, 6.5 hours (FIG. 19)): up to 370 ng/ml
dependence of the induction of apoptosis on singlet oxygen ([2]; substance alone, 2 mM histidine (singlet oxygen scavenger), MKN-45): depends on singlet oxygen
synergistic effect with salicylic acid on catalase inactivation (tumor cell catalase): synergistic effect on the catalase inactivation
dependence of the induction of apoptosis on singlet oxygen (Gumbus lymphoma cells; 2 mM histidine (singlet oxygen scavenger)): caused by a fast singlet oxygen-dependent step that inactivates catalase within the first hour
ROS signal path of the induced apoptosis (inhibitor profile) (Gumbus lymphoma cells; L-NAME, taurine, ABH): at low concentrations of taxol is via the NO/peroxynitrite path, at higher concentrations via the HOCl path
